Structures are written as SMILES. Read-outs that look alike come from different tables or passages of the source.

The results in this text go back to patent US9718825B2, “N-(4-(azaindazol-6-yl)-phenyl)-sulfonamides and their use as pharmaceuticals” (priority 2013, dated 2017).

Experiment [1] relates to SGK-1 dependent phosphorylation of GSK3beta in U2OS cells. Briefly: SGK-1 dependent phosphorylation of GSK3beta in U2OS cells overexpressing recombinant SGK-1 and GSK3beta. The format is cell-based, human. The following applies: read-out: IC50 values for inhibition of SGK-1 dependent phosphorylation of GSK3beta in U2OS cells.
The target of experiment [2] is recombinant human SGK-1 enzyme. As to the kind of experiment: Enzymatic activity assay: SGK-1 substrate peptide phosphorylation (Caliper lab-chip mobility shift). In kind it is biochemical. The following applies: peptide substrate 1 μM, ATP 10 μM, 60 min at 37° C., read-out: IC50 values for inhibition of SGK-1 enzymatic activity.
The target of experiment [3] is recombinant human SGK-1 enzyme (Homo sapiens, UniProt O00141). The experiment is described as above. In kind it is biochemical.
Chain of recombinant human SGK-1 enzyme (Homo sapiens, UniProt O00141) (O00141 whole entry, looked up): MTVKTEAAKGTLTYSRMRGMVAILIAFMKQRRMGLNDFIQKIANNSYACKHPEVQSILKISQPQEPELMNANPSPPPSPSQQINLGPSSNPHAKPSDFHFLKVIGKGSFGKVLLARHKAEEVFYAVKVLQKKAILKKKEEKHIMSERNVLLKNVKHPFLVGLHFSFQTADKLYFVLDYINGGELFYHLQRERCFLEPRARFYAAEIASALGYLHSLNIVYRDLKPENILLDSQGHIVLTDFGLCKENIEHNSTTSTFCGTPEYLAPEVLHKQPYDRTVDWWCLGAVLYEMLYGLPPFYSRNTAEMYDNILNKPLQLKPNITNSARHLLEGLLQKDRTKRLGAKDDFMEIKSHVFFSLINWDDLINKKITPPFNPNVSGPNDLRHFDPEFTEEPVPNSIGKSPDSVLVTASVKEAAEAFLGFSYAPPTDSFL
The test system of experiment [4] is SGK-1 dependent activation of ENaC-currents in A6 cell monolayers. Briefly: Functional electrophysiological assay (Ussing chamber): SGK-1 dependent activation of ENaC-currents in A6 cell monolayers. In kind it is cell-based, Xenopus laevis. The following applies: hypoosmotic shock 45 min, amiloride-sensitive ΔI'sc, read-out: IC50 values for inhibition of SGK-1 dependent activation of ENaC-currents in A6 cell monolayers. The method, then: C) Functional Electrophysiological Assay for Determination of SGK-1 Dependent Activation of ENaC-Currents in A6 Cell Monolayers
Cells were grown in cell culture flasks (Nunc) at 28° C. in a humidified atmosphere with 4% CO2. The culture medium contained a 7:3 mixture of Leibovitz's L-15 (Sigma-Aldrich)/Coon's (Sigma-Aldrich) media supplemented with 10% fetal bovine serum (PAA), 20% sterile water, 25 mM NaHCO3 (Sigma-Aldrich), 100 U/ml penicillin (PAA) and 100 μg/ml streptomycin (PAA). The osmolality of the medium was 270 mOsml/kg H2O). Cells were detached with accutase (PAA) and seeded for electrophysiological measurements into transwell filter inserts (polyester 0.4 μm pore size, Corning) at a density of 0.4×10^6 cells/filter. Cells were cultivated for 7-10 days, and confluent A6 cell monolayers were identified by repetitive resistance measurements in cell culture medium using an EVOM^2 ohmmeter (World Precision Instruments). Monolayers with a resistance of >10 kOhm were considered confluent. Filters with confluent A6 cells were transferred into a continuously perfused Ussing-chamber, and electrophysiological parameters were measured under open circuit conditions using a transepithelial clamp amplifier (EP Design). Short circuit current (I′sc) was calculated by Ohm's law. […] The pH was adjusted to 8.2. All measurements were done at room temperature.
To evaluate the effects of SGK inhibitors on ENaC-mediated transepithelial currents, A6 monolayers were first equilibrated for 5 min with isoosmotic Ringer solution from both the luminal and basolateral side of the cell layer. Amiloride was applied to the luminal site to establish the basal ENaC-dependent current (I′scbasal). Cell layers were then perfused from the basolateral side for 10 min with compounds in isotonic buffer or control isotonic buffer. SGK signaling leading to increased ENaC activity and subsequent increase in I′sc was stimulated by application of hypoosmotic Ringer-solution for 45 min to both sides of the A6 cell layer. ENaC-dependent I′sc after the hypoosmotic shock (I′schypo) was determined by application of amiloride at the end of the experiment. Total changes of amiloride-sensitive Isc was calculated as ΔI′sc=I′schypo−I′scbasal. […] The inhibition of ΔI′sc by the test compounds was determined relative to the ΔI′sc measured with control monolayers which were not treated with the test compound.

Experiment [5] has as its system collagen type X (Col10a1) expression in mouse chondrogenic ATDC5 cells. As to the kind of experiment: Chondrocyte hypertrophic differentiation in mouse chondrogenic ATDC5 cells (collagen type X expression). In kind it is cell-based. The conditions noted are these: Col10a1 expression by quantitative real-time PCR after two weeks of cell culture, read-out: IC50 values for the inhibition of collagen type X expression in mouse chondrogenic ATDC5 cells. From the text: D) Determination of the effect on chondrocyte hypertrophic differentiation in mouse chondrogenic ATDC5 cells
The ATDC5 cell assay was used as in vitro model to determine the effects of the compounds of the invention on chondrocyte hypertrophic differentiation by monitoring the expression levels of collagen type X (Col10a1) as specific marker of chondrocyte hypertrophy.
Background: ATDC5 cells are a clonal mouse embryonic cell line derived from multipotent AT805 teratocarcinoma cells (Atsumi, T. et al., A chondrogenic cell line derived from a differentiating culture of AT805 teratocarcinoma cells, Cell Differ. Dev. 1990, 30, 109-116). The cells can undergo insulin-dependent chondrogenic cell differentiation entailing distinct differentiation stages starting from an undifferentiated, subconfluent stage, a condensation stage, a cartilage nodule formation stage and a calcification stage within 45 days of in vitro culture. Chondrogenic differentiation can be shown by measuring the expression of the cartilage main collagen (Col2a1) and aggrecan (AGC1) and glycosaminoglycan-staining with Alcian Blue within two weeks after insulin-triggered differentiation, and hypertrophic differentiation can be monitored by the expression of collagen type X (Col10a1), a specific marker of chondrocyte hypertrophy within 21 days of in vitro culture. (Shukunami, C. et al., Chondrogenic Differentiation of Clonal Mouse Embryonic Cell Lne ATDC5 In Vitro: Differentiation-dependent Gene Expression of Parathyroid Hormone (PTH)/PTH-related Peptide Receptor, J. Cell Biol. 1996, 133, 457-468). Growth factor BMP-2 is known to stimulate cell differentiation and can stimulate early and late-phase ATDC5 differentiation (Shukunami, C. et al., Sequential Progression of the Differentiation Program by Bone Morphogenetic Protein-2 in Chondrogenic Cell Line ATDC5, Exp. Cell Res. 1998, 241, 1-11). Thyroid hormone triiodothyronine (T3) promotes hypertrophic differentiation of growth plate chondrocytes (Robson, H. et al., Thyroid Hormone Acts Directly on Growth Plate Chondrocytes to Promote Hypertrophic Differentiation and Inhibit Clonal Expansion and Cell Proliferation, Endocrinology 2000, 141, 3887-3897). Addition of BMP2 and T3 can accelerate ATDC5 hypertrophic differentiation leading to the strong induction Col10a1 expression between 10-14 days. SGK-inhibitors were added to differentiating ATDC5 cells for 14 days and Col10a1 gene expression was quantified to determine effects on chondrocyte hypertrophic differentiation.
Cell assay description: ATDC5 cells were maintained in 300 cm^2 tissue culture flasks in DMEM/Ham's F12+5% FCS supplemented with 10 μg/ml human transferrin, 30 nM sodium selenite, 50 μg/ml kanamycin and grown at 37° C. in 5% CO2 in 95% air. To initiate cell differentiation, 9.9×10^4 cells were plated in 24 well plates and grown for 2 days. Medium was exchanged with DMEM/Ham's F12+5% FCS supplemented with 10 μg/ml human transferrin, 30 nM sodium selenite, 50 μg/ml ascorbic acid and 1 μg/ml BMP2. The assay was run in triplicates, compounds were added in […], and medium changed every 2-3 days including supplementation of compound. At day 7 after initiation of cell differentiation, 1 μM T3 was used as additional supplement in the cell culture.
After two weeks of cell culture, RNA was isolated and converted to cDNA for determination of gene expression by quantitative real-time PCR. Cells were lysed in 600 μl of RLT-buffer (Qiagen) and total RNA was isolated using the RNA-easy Mini RNA isolation Kit (Qiagen) which was run on a Qiacube system (Qiagen) according to the supplier's instructions. RNA was isolated in 30 μl of pure water and the RNA content measured by UV-spectroscopy (Nanodrop, Peqlab). For cDNA synthesis 50 ng total RNA was reverse transcribed using the High Capacity cDNA Reverse Transcription Kit (Applied Biosystems, Product Number 4368813) according to the manufacturer's instructions. […]
A general note: In qPCR the cycle at which signal appears reflects the starting amount.

Setting [6] is: U2OS cells, 6 h incubation, ratio of phosphorylated GSK3beta to total GSK3beta.
Setting [7] is: peptide substrate 1 μM, ATP 10 μM, 60 min at 37° C., read-out: IC50 values for inhibition of SGK-1 enzymatic activity.

One may read the IC50 as the concentration needed to halve the response being measured. For the compound `Cc1ccc(C#N)c(S(=O)(=O)Nc2ccc(-c3cc4[nH]nc(C)c4cn3)cc2)c1` [Example 561, 2-Cyano-5-methyl-N-[4-(3-methyl-1H-pyrazolo[4,3-c]pyridin-6-yl)phenyl]benzenesulfonamide], the IC50 in experiment [1] (Homo sapiens, U2OS, 6 h) was determined as 2.7 µM; in experiment [2] it was 0.0078 µM.
Take `O=S(=O)(Nc1ccc(-c2cc3[nH]ncc3cn2)cc1)c1cc(Cl)ccc1Cl` [Example 563, 2,5-Dichloro-N-[4-(1H-pyrazolo[4,3-c]pyridin-6-yl)phenyl]benzenesulfonamide]: the IC50 in experiment [2] was 0.052 µM.
The same measure, in the same setting: with `Nc1n[nH]c2cc(-c3ccc(NS(=O)(=O)c4cc(Cl)c(F)cc4F)cc3)nc(O)c12` [Example 549, N-[4-(3-Amino-4-hydroxy-1H-pyrazolo[4,3-c]pyridin-6-yl)phenyl]-5-chloro-2,4-difluoro-benzenesulfonamide] the figure was 0.0077 µM.
Consider `N#Cc1ccc(Cl)cc1S(=O)(=O)Nc1ccc(-c2nc(OC3CCC(O)CC3)c3cn[nH]c3n2)cc1` (stereo not drawn) [Example 83], for which the concentration for half-maximal inhibition (IC50) in experiment [1] (setting [6]) worked out at 2.1 µM; in experiment [3] (setting [7]) it was 0.002 µM; in experiment [4], 1.9 µM; in experiment [5], 0.13 µM.
Taken in the same sequence, the figures for `O=S(=O)(Nc1ccc(-c2nc(OC3CCC(O)CC3)c3cn[nH]c3n2)cc1)c1cc(Cl)ccc1Cl` (stereo not drawn) [Example 61] were 0.43 µM, under 0.0012 µM, 1.4 µM and 0.036 µM.
In the case of `Cc1ccc(C#N)c(S(=O)(=O)Nc2ccc(-c3nc(OC4CCC(O)CC4)c4cn[nH]c4n3)cc2)c1` (stereo not drawn) [Example 4, 2-Cyano-N-{4-[4-(4-hydroxy-cyclohexyloxy)-1H-pyrazolo[3,4-d]pyrimidin-6-yl]-phenyl}-5-methyl-benzenesulfonamide], the IC50 in experiment [1] (Homo sapiens, U2OS cells, 6 h incubation, ratio of phosphorylated GSK3beta to total GSK3beta) was 0.11 µM; in experiment [3] (read-out: IC50 values for inhibition of SGK-1 enzymatic activity, peptide substrate 1 μM, ATP 10 μM, 60 min at 37° C.) it was under 0.0015 µM; in experiment [4] (Xenopus laevis, INA-6, 0.75 h), 3.2 µM; in experiment [5] (Mus musculus, Chondrocyte, 336 h), 0.009 µM.
Turning to `COc1ccc(C#N)c(S(=O)(=O)Nc2ccc(-c3nc(C4CC4)c4c(N)n[nH]c4n3)cc2)c1` [Example 520], the IC50 in experiment [1] (setting [6]) is 0.061 µM; in experiment [3] (setting [7]) it was under 0.0015 µM; in experiment [4] it was 0.5 µM; in experiment [5], 0.03 µM.
Taken in the same sequence, the figures for `Cc1ccc(C#N)c(S(=O)(=O)Nc2ccc(-c3nc(C)c4c(N)n[nH]c4n3)cc2)c1` [Example 468] were 0.23 µM, under 0.0015 µM, 0.61 µM and 0.87 µM.
The like results for `Nc1n[nH]c2nc(-c3ccc(NS(=O)(=O)c4cc(F)ccc4F)cc3)ncc12` [Example 519] were, in that order, 0.26 µM, 0.19 µM, 1.1 µM and 0.26 µM.
The like results for `Cc1nc(-c2ccc(NS(=O)(=O)c3cc(Cl)ccc3C#N)cc2)nc2[nH]ncc12` [Example 492] were, in that order, 4.2 µM, 0.0038 µM, 1.1 µM and 0.66 µM.
Turning to `COc1ccc(Cl)c(S(=O)(=O)Nc2ccc(-c3nc(C)c4c(N)n[nH]c4n3)cc2)c1` [Example 467], the IC50 in experiment [1] (setting [6]) was 0.15 µM; in experiment [3] (setting [7]) it was under 0.0015 µM; in experiment [4] it was 0.16 µM; in experiment [5], 0.053 µM.
